Experimental data reported in ChEMBL document CHEMBL1649252, “Plasmodium falciparum drug resistance in Madagascar: facing the spread of unusual pfdhfr and pfmdr-1 haplotypes and the decrease of dihydroartemisinin susceptibility” (Antimicrob Agents Chemother, 2009).

Experiments:
Plasmodium falciparum [1] = test: Antimalarial activity against Plasmodium falciparum assessed as resistant isolates; format: functional
Plasmodium falciparum [2] = test: Antimalarial activity against Plasmodium falciparum assessed as parasite growth inhibition after 48 hrs by [3H]hypoxanthin incorporation assay; format: functional, organism-based

Row | SMILES | Activity (Plasmodium falciparum [1]) [%] | IC50 (Plasmodium falciparum [2]) [nM]
1 | C[C@H]1[C@@H](O)O[C@@H]2O[C@@]3(C)CC[C@H]4[C@H](C)CC[C@@H]1[C@@]24OO3 [ARTENIMOL] | 0 | 0.95
2 | CCN(CC)CCCC(C)Nc1ccnc2cc(Cl)ccc12 (centres undefined) [CHLOROQUINE] | 3.2 | –
3 | CCNCc1cc(Nc2ccnc3cc(Cl)ccc23)ccc1O [DESETHYL AMODIAQUINE] | 0.5 | 8.3
4 | OC(c1cc(C(F)(F)F)nc2c(C(F)(F)F)cccc12)C1CCCCN1 (centres undefined) [MEFLOQUINE] | 0.4 | 6.7
5 | C=C[C@H]1CN2CC[C@H]1C[C@H]2[C@H](O)c1ccnc2ccc(OC)cc12 [QUININE] | 0 | 53.7
